Melting point data for 91 molecules are collected here from a melting point compilation (Tetko et al.; mined from patent text by program, amines drawn as free bases though some values may be those of a salt).

As usually defined, the melting point is the temperature of the solid-liquid transition.

As to `CN1CCN(c2cc(Cl)cc3c2c(=O)n(Cc2ccncc2)c(=O)n3Cc2ccccc2)CC1`, the melting point was in the range of 94 to 100 °C.
Then `CSCCSc1nc(C(C)(C)C)n[nH]1`, with 114 to 116 °C; and `COc1ccc(CCNC(=O)C(F)(F)F)cc1NS(C)(=O)=O`, with 129 to 130 °C.
To `CC(=O)N[C@@H]1CCCC[C@H]1NS(=O)(=O)c1ccc(C)cc1` (relative stereo) belongs 174 to 176 °C; to `c1ccc(-c2ccc3nncn3n2)nc1`, 191 to 192 °C; to `CC(=O)Nc1nc2c(ncn2COCCOC(C)=O)c(=O)[nH]1`, 202 to 204 °C.
Turning to `O=[N+]([O-])c1cnn(CC(O)CCl)n1` (stereo unspecified), the melting point is 38 to 38.5 °C.
Turning to `O=C(c1cc2c(OC[C@@H](O)CN3CCC(c4ccc5ccccc5c4)CC3)cccc2[nH]1)N1CCCC1`, the melting point is 158 to 161 °C.
In turn, `C(=C\c1cc(/C=C/c2c[nH]c3ccccc23)n[nH]1)/c1cccc(OCc2ccccn2)c1` yielded a melting point of 198 to 201 °C.
`O=C(Nc1cc(O)c(Cl)cc1F)OCc1ccccc1` displayed a melting point of 70 to 72 °C.
Then `CCOc1nn(Cc2ccc(OCCc3nc(-c4ccccc4)oc3C)cc2)cc1CCC(=O)O`, with 142 to 143 °C; and `O=C(N[C@H]1CC[C@H](CCN2CCN(c3nccc4c3OCC4)CC2)CC1)c1ccc(N2CCCCC2)cc1`, with 182 °C.
As for `N#CNC(=N)Nc1cc(Cl)cc(Cl)c1`, the melting point was 196 to 198 °C.
Then `COc1cccc(C(=O)NCC(=O)N2c3ccccc3N(Cc3ccccc3)C(=O)[C@H]3CCC[C@H]32)c1` (relative stereo), with 160 to 161 °C; and `C=CC(=O)Nc1cccc(-c2ccnc3c(C(=O)c4cccs4)cnn23)c1`, with 192 to 194 °C.
Then `CC1(C)OC(=O)N[C@H]1Cc1ccccc1`, with 59 °C; and `CC(C)(C)[Si](C)(C)OC(CCCO)COc1ccc2c(=O)cc(-c3ccccc3)oc2c1` (stereo unspecified), with 124 to 125 °C; and `CCc1nc2c(N)nc3cc(/C=C/C(=O)N4CCOCC4)ccc3c2n1CC1CCOCC1`, with more than 260 °C.
Then `Cc1cc(C(N)=O)ccc1N`, with 124 °C.
Take `CC(=O)c1ccc2c(c1)C(=O)C1(CC1)S2`: the melting point was 128 to 129 °C.
In turn, `Cc1cc(C)c2c(-c3ccc(C(C)C)cc3)csc2c1` came in with a melting point of 83 to 84 °C.
`N#Cc1c(N)nc2ccccc2c1Cl` had a melting point of 210 °C.
To `CCSc1nnc(-c2ccccc2)n1Cc1ccc([N+](=O)[O-])cc1` belongs 108 °C; to `CC(C)c1nc(C(C)C)c(CN2CCC(N3CCCCC3)CC2)c(-c2ccc(F)cc2)c1CO`, 143 to 145 °C.
As to `Oc1ccc(C(F)(F)F)cc1C=S`, the melting point was in the range of 50 to 52 °C.
For `Fc1cc(F)c(N=C2NCCN2)c(F)c1F`, the melting point fell in the range of 167 to 168 °C.
Then `CCCCCCCCCCOc1ccc2c(=O)c3cccc(C(=O)OCC)c3oc2c1CCC(=O)OCC`, with 69 to 70 °C.
Then `CCc1cccc(C)c1CNc1nc(OC)cc(NC)c1[N+](=O)[O-]`, with 166 to 167 °C; and `CCC1c2cc(F)ccc2-c2ccccc2N1S(=O)(=O)c1ccc(OC(=O)CC(C)(C)C)cc1` (stereo unspecified), with 128 °C.
The molecule `Nc1nc(N)n(CCCOc2cccc(CN3CCCCC3)c2)n1` had a melting point of 100 °C.
To `O=C(NC1CC1)c1nc(-c2ccccc2)c(-c2ccc(=O)n(Cc3ccccc3)n2)s1` belongs 151 to 152 °C.
To `O=C(/C=C/c1ccc2ccccc2c1)N1CCOC1=O` belongs 121 to 123 °C; to `COC(=O)c1ccccc1N(C)C(=O)c1ccc(OC)nc1`, 68 to 70 °C.
Then `c1cc2ncn(CCCCc3nnnn3C3CCCCC3)c2cn1`, with 133 to 135 °C; and `NC(=O)Cc1ccc(OCC(O)CNCCCCn2cnc3ccccc32)cc1` (stereo unspecified), with 119 to 123 °C.
For `Cc1cc2ccccc2cc1C=O`, the melting point came to 119 °C.
`CCC(C)OC(=O)C(Br)=CC1C(C(=O)OC(C#N)c2cccc(Oc3ccccc3)c2)C1(C)C` (stereo unspecified) displayed a melting point of 76 °C.
Turning to `Fc1ccc(Cn2ccc3cc(Br)ccc32)cc1`, the melting point was 57 to 58 °C.
Then `O=C(C#Cc1cccc(OCc2ccccc2)c1)c1ccccc1`, with 75 to 77 °C.
As to `CCOC(=O)c1c(N)cc(C(F)(F)F)nc1C(F)(F)F`, the melting point fell in the range of 43 to 45 °C.
`O=CN(O)[C@@H](CCCO)CS(=O)(=O)c1ccc(Oc2ccc(OC(F)(F)F)cc2)cc1` had a melting point of 85 to 86 °C.
To `CCOC(=S)c1cccc2nnsc12` belongs 114 to 115 °C; to `BrCc1cccc(OCCCCOc2ccccc2)c1`, 47 to 49 °C.
Molecule `CNC(=O)c1cc(-c2cnn(C)c2)cc(F)c1Nc1nc(Cl)ncc1Cl` displayed a melting point of 220 to 221 °C.
Then `CSc1nn(-c2c(Cl)cc(Cl)cc2Cl)c(N)c1C(N)=O`, with 198 to 199 °C; and `O=c1[nH]c2ccccc2c(=O)n1CCOCCO`, with 149 to 151 °C; and `CCCCC(=O)Nc1ccc(Cl)c(-n2nc(CCCC)c(Cc3ccc(-c4ccccc4S(=O)(=O)NC(=O)c4ccccc4Cl)cc3F)c2C#N)c1`, with more than 95 °C.
To `CN(C)C(=O)C1CCN(c2c(Cl)cncc2Cl)CC1` belongs 120 to 122 °C; to `FC(F)(F)c1ccccc1-c1n[nH]c(-c2ccccc2C(F)(F)F)n1`, 190 to 192 °C.
To `Cc1c(CN(C)CCc2ccc(NS(C)(=O)=O)cc2)oc2ccc(NS(C)(=O)=O)cc12` belongs 142 to 144 °C; to `Cc1cccc(NS(=O)(=O)c2ccc(N3CCNC3=O)cc2)c1C`, 231 to 232 °C; to `O=C(CCc1ccccc1)Nc1ccc(C(=O)NN=C2C(=O)Nc3ccc(Br)cc32)cc1`, 326 °C.
Molecule `CCNCc1ccc(O)c(C(CCN(C(C)C)C(C)C)c2ccccc2)c1` (stereo unspecified) showed a melting point of 140 to 142 °C.
Then `O=C(O)C[C@@H](Cc1ccccc1)C(=O)OCc1ccccc1`, with 48 to 52 °C.
`Cc1c(Br)csc1-c1nc(-c2c(F)cccc2Cl)nn1C` gave a melting point of 111 to 112 °C.
`CCOC(=O)c1c(C)ncn1-c1ccc(Cl)c(Cl)c1`: the melting point lay in the range of 135 to 136 °C.
To `N[C@H](C1CCCCC1)C(O)(c1ccc2ccccc2c1)c1ccc2ccccc2c1` belongs 205 to 206 °C; to `O=C1C2CCCN2c2ccccc2N1Cc1ccccc1` (stereo unspecified), 156 to 157 °C; to `CC(C)(Oc1ccc2c(-c3ccc(Cl)cc3)noc2c1)C(=O)O`, 132 °C.
In the case of `OC1CSC(Oc2ccncc2)C(O)C1O` (stereo unspecified), the melting point fell in the range of 165 to 168 °C.
To `CCOC(=O)c1ccc(-c2ccc(-c3ccccc3)cc2-c2ccc3c(c2)C(C)(C)CCC3(C)C)cc1O` belongs less than 70 °C.
Regarding `CC1CSC(=O)C2Cc3ccccc3N2C1=O` (stereo unspecified), the melting point lay in the range of 108 to 110 °C.
To `CC(C)(O)C(C(=O)O)c1ccc(F)cc1` (stereo unspecified) belongs 86 to 88 °C; to `Fc1cccc2oc(CCC#Cc3ccccn3)nc12`, 89 to 89.5 °C.
To `CCOC(=O)c1cc2c3ccccc3n(Cc3ccccc3)c2nc1N1CCOCC1` belongs 151 to 152 °C; to `O=C(O)CCOc1cccc(/C=C/c2nc3ccccc3s2)c1`, 177 to 178 °C; to `CCOc1nn(Cc2ccc(OCCn3ncc4ccccc4c3=O)cc2)cc1CCC(=O)O`, 152 to 153 °C.
In the case of `CC(=O)OC1C(CO)OC(n2c(=O)sc3cnc(N)nc32)C1OC(C)=O` (stereo unspecified), the melting point was in the range of 109 to 111 °C.
To `Cn1c(-c2ccc(-n3ccnc3)cc2)cnc1[C@H](Cc1ccccn1)N(C=O)c1cc2cc(Cl)ccc2o1` belongs 63 to 73 °C; to `CS(=O)(=O)c1ccc(C(CC2CCCC2)C(=O)Nc2ccc3ccccc3n2)cc1Br` (stereo unspecified), 95 to 100 °C; to `COC(=O)c1ccc(NC=O)nc1`, 218 to 220 °C.
`Nc1ccc2ccc(O)cc2c1` displayed a melting point of 186 to 188 °C.
`O=C(CI)NCCSC=CSCCNC(=O)CI` returned a melting point of 129 °C.
To `O=Cc1ccc(CO)cc1` belongs 44.5 to 46 °C; to `FC(F)(F)c1cccc(-c2ncc(CCl)c(C3CC3)n2)c1`, 92 to 95 °C; to `O=C(O)c1cnc2ccn(Cc3ccccc3)n2c1=O`, 198 to 199 °C.
As to `Fc1ccc2nc[nH]c2c1`, the melting point is 194 to 196 °C.
In turn, `CC(=O)c1ccc2c(c1)Cc1cc(C#N)ccc1-2` came in with a melting point of 182 to 188 °C.
To `CCC1(CCC(=O)OC(C)(C)C)CCCN2CCc3c([nH]c4ccccc34)C21` (stereo unspecified) belongs 194 to 195 °C; to `CC(C)C(CN(C)c1ccccc1)NS(=O)(=O)c1c(Cl)cc(Cl)cc1Cl` (stereo unspecified), 169 to 170 °C; to `Cc1c(NC(=O)c2ccc(CC(=O)CC(C)C)cc2)ccc2cc(CN3CCCC3)cnc12`, 153 °C.
Then `O=C(CCCCCCCCC(=O)OCCO)OCCO`, with 47 °C; and `O=C1c2cccc(NCc3ccccc3)c2C(=O)c2cccc(NCc3ccccc3)c21`, with 218 to 220 °C.
As for `COC(Cc1ccc(OCCc2nc(C(C)(C)C)oc2C)c2ccsc12)C(=O)O` (stereo unspecified), the melting point lay in the range of 163 to 165 °C.
As to `CC(=O)c1c(-c2ccc(F)cc2)[nH]c(-c2ccncc2)c1C`, the melting point lay in the range of 202 to 203 °C.
Then `CCOCc1nc2c(N)nc3ccccc3c2n1NCC(C)C`, with 137 to 140 °C; and `COc1ccc(C(=O)c2ccc(Cl)c(S(N)(=O)=O)c2)cc1`, with 156 to 158 °C.
With `CCOC(OCC)c1cc(-n2c(=O)cc(C(F)(F)F)n(N)c2=O)ccc1Cl`, the melting point was in the range of 80 to 81 °C.
Then `CCOC(=O)C(O)CCc1ccc(OCCc2nc(-c3ccccc3)oc2C)cc1` (stereo unspecified), with 67 to 68 °C.
Then `COCCNCc1ccccc1Oc1ccc(-c2cn(C3CCOC3)c3ncnc(N)c23)cc1` (stereo unspecified), with 66 to 68 °C.
Then `COc1cc(C2(O)CCN(C(=O)OC(C)(C)C)CC2)ccc1Nc1ncc2ccc(-c3ccccc3N(C)S(C)(=O)=O)n2n1`, with 111 to 112 °C.
